HELM strings list units from the 5' end as sugar, base in round brackets, then linkage (d deoxyribose, r ribose, m 2'-O-methyl, p phosphodiester). Strings are as the collection lists them, not checked against the first reports. ss, as = sense and antisense strand; [lna] = locked nucleic acid (LNA); [hna] = hexitol nucleic acid; [fl2r] = 2'-fluoro
Settings: siRNA
Further: test system not given here.

Substance	target mRNA knockdown [%]
RNA1{m(G)p.r(G)p.m(U)p.r(A)p.m(G)p.r(G)p.m(G)p.r(U)p.m(U)p.r(G)p.m(A)p.r(A)p.m(G)p.r(A)p.m(G)p.r(A)p.m(C)p.r(U)p.r(U)p.r(T)p.r(T)}|RNA2{r(A)p.r(A)p.r(G)p.r(U)p.r(C)p.r(U)p.r(C)p.r(U)p.r(U)p.r(C)p.r(A)p.r(A)p.m(C)p.r(C)p.r(C)p.r(U)p.m(A)p.r(C)p.r(C)p.r(T)p.r(T)}$$$RNA1{StrandType:ss}|RNA2{StrandType:as}$	58
RNA1{r(C)p.r(U)p.r(U)p.r(A)p.r(C)p.r(G)p.r(C)p.r(U)p.r(G)p.r(A)p.r(G)p.r(U)p.r(A)p.r(C)p.r(U)p.r(U)p.r(C)p.r(G)p.r(A)p.r(T)p.r(T)}|RNA2{r(T)p.r(C)p.r(G)p.r(A)p.r(A)p.r(G)p.r(U)p.[lna](A)p.r(C)p.r(U)p.r(C)p.r(A)p.r(G)p.r(C)p.r(G)p.r(U)p.r(A)p.r(A)p.r(G)p.[lna](T)p.[lna](T)}$$$RNA1{StrandType:ss}|RNA2{StrandType:as}$	90
RNA1{r(C)p.r(G)p.r(G)p.r(A)p.r(U)p.r(C)p.m(U)p.r(A)p.m(C)p.r(A)p.r(C)p.r(C)p.r(U)p.r(U)p.m(C)p.r(A)p.r(A)p.r(G)p.r(A)p.r(T)p.r(T)}|RNA2{r(U)p.r(C)p.r(U)p.m(U)p.r(G)p.r(A)p.r(A)p.r(G)p.r(G)p.m(U)p.r(G)p.m(U)p.r(A)p.r(G)p.r(A)p.r(U)p.r(C)p.r(C)p.r(G)p.r(T)p.r(T)}$$$RNA1{StrandType:ss}|RNA2{StrandType:as}$	68
RNA1{[hna](G)p.[hna](A)p.[hna](C)p.r(G)p.r(U)p.r(A)p.r(A)p.r(A)p.r(C)p.r(G)p.r(G)p.r(C)p.r(C)p.r(A)p.r(C)p.r(A)p.r(A)p.[hna](G)p.[hna](U)p.[hna](U)p.d(T)}|RNA2{r(A)p.r(C)p.r(U)p.r(U)p.r(G)p.r(U)p.r(G)p.r(G)p.r(C)p.r(C)p.r(G)p.r(U)p.r(U)p.r(U)p.r(A)p.r(C)p.r(G)p.[hna](U)p.[hna](C)p.[hna](G)p.d(T)}$$$RNA1{StrandType:ss}|RNA2{StrandType:as}$	84.6
RNA1{r(G)p.r(A)p.r(C)p.[fl2r](C)p.r(A)p.r(C)p.r(G)p.r(A)p.r(A)p.r(G)p.r(A)p.r(G)p.r(U)p.[fl2r](U)p.r(A)p.r(A)p.r(C)p.r(C)p.r(C)p.r(T)p.r(T)}|RNA2{r(G)p.r(G)p.r(G)p.r(U)p.[fl2r](U)p.r(A)p.r(A)p.r(C)p.r(U)p.r(C)p.r(U)p.r(U)p.r(C)p.r(G)p.[fl2r](U)p.r(G)p.r(G)p.r(U)p.r(C)p.r(T)p.r(T)}$$$RNA1{StrandType:ss}|RNA2{StrandType:as}$	85
RNA1{r(A)p.r(G)p.r(U)p.m(U)p.r(A)p.r(A)p.r(C)p.r(C)p.r(C)p.r(G)p.r(G)p.r(G)p.r(A)p.r(C)p.r(U)p.m(U)p.r(G)p.r(G)p.r(A)p.r(T)p.r(T)}|RNA2{r(U)p.r(C)p.m(C)p.r(A)p.r(A)p.r(G)p.r(U)p.r(C)p.r(C)p.r(C)p.r(G)p.r(G)p.r(G)p.r(U)p.m(U)p.r(A)p.r(A)p.r(C)p.r(U)p.r(T)p.r(T)}$$$RNA1{StrandType:ss}|RNA2{StrandType:as}$	90
RNA1{r(U)p.r(C)p.r(C)p.r(G)p.r(G)p.r(C)p.[fl2r](U)p.r(A)p.r(A)p.r(C)p.r(U)p.r(C)p.r(U)p.r(G)p.r(A)p.r(G)p.r(G)p.r(A)p.r(C)p.r(T)p.r(T)}|RNA2{r(G)p.r(U)p.r(C)p.r(C)p.r(U)p.r(C)p.r(A)p.r(G)p.r(A)p.r(G)p.r(U)p.[fl2r](U)p.r(A)p.r(G)p.r(C)p.r(C)p.r(G)p.r(G)p.r(A)p.r(T)p.r(T)}$$$RNA1{StrandType:ss}|RNA2{StrandType:as}$	82
RNA1{m(A)p.r(U)p.m(A)p.r(C)p.m(U)p.r(U)p.m(G)p.r(G)p.m(C)p.r(G)p.m(G)p.r(G)p.m(C)p.r(U)p.m(C)p.r(U)p.m(U)p.r(U)p.m(C)p.r(T)p.r(T)}|RNA2{m(G)p.r(A)p.r(A)p.r(A)p.m(G)p.r(A)p.m(G)p.r(C)p.r(C)p.r(C)p.m(G)p.r(C)p.r(C)p.r(A)p.r(A)p.m(G)p.r(U)p.r(A)p.r(U)p.r(T)p.r(T)}$$$RNA1{StrandType:ss}|RNA2{StrandType:as}$	25
RNA1{[fl2r](A)p.r(A)p.[fl2r](G)p.r(G)p.[fl2r](A)p.r(C)p.[fl2r](C)p.r(U)p.[fl2r](A)p.r(G)p.[fl2r](A)p.r(G)p.[fl2r](G)p.r(A)p.[fl2r](G)p.r(U)p.[fl2r](C)p.r(A)p.r(C)p.r(T)p.r(T)}|RNA2{r(G)p.r(U)p.r(G)p.r(A)p.r(C)p.r(U)p.r(C)p.r(C)p.r(U)p.r(C)p.r(U)p.r(A)p.r(G)p.r(G)p.r(U)p.r(C)p.r(C)p.r(U)p.r(U)p.r(T)p.r(T)}$$$RNA1{StrandType:ss}|RNA2{StrandType:as}$	31
RNA1{r(A)p.r(C)p.r(G)p.r(U)p.m(C)p.r(A)p.r(C)p.r(C)p.r(G)p.r(A)p.r(G)p.r(G)p.r(A)p.r(G)p.r(A)p.r(A)p.r(G)p.m(U)p.m(A)p.r(T)p.r(T)}|RNA2{m(U)p.m(A)p.r(C)p.r(U)p.r(U)p.r(C)p.r(U)p.r(C)p.r(C)p.r(U)p.r(C)p.r(G)p.r(G)p.m(U)p.r(G)p.r(A)p.r(C)p.r(G)p.r(U)p.r(T)p.r(T)}$$$RNA1{StrandType:ss}|RNA2{StrandType:as}$	74
RNA1{r(A)p.r(G)p.r(A)p.r(A)p.r(G)p.r(G)p.r(A)p.r(C)p.m(U)p.r(A)p.r(C)p.m(U)p.r(A)p.r(A)p.r(C)p.r(C)p.m(U)p.r(C)p.r(C)p.r(T)p.r(T)}|RNA2{r(G)p.r(G)p.r(A)p.r(G)p.r(G)p.m(U)p.m(U)p.r(A)p.r(G)p.m(U)p.r(A)p.r(G)p.m(U)p.r(C)p.r(C)p.m(U)p.m(U)p.r(C)p.m(U)p.r(T)p.r(T)}$$$RNA1{StrandType:ss}|RNA2{StrandType:as}$	49
RNA1{r(G)p.r(A)p.r(A)p.r(C)p.r(U)p.r(C)p.r(U)p.r(U)p.r(A)p.r(G)p.r(C)p.r(G)p.r(U)p.r(A)p.r(U)p.r(G)p.r(C)p.r(A)p.r(A)p.d(T)p.d(T)}|RNA2{r(U)p.r(U)p.r(G)p.r(C)p.r(A)p.r(U)p.r(A)p.r(C)p.r(G)p.r(C)p.r(U)p.r(A)p.r(A)p.r(G)p.r(A)p.r(G)p.r(U)p.r(U)p.r(C)p.d(T)p.d(T)}$$$RNA1{StrandType:ss}|RNA2{StrandType:as}$	56
RNA1{r(A)p.r(A)p.r(C)p.r(C)p.r(C)p.r(A)p.r(A)p.r(A)p.r(G)p.r(G)p.r(G)p.r(G)p.r(A)p.r(G)p.r(U)p.m(U)p.r(G)p.r(C)p.r(U)p.r(T)p.r(T)}|RNA2{r(A)p.r(G)p.r(C)p.r(A)p.r(A)p.r(C)p.r(U)p.r(C)p.r(C)p.r(C)p.r(C)p.r(U)p.r(U)p.m(U)p.r(G)p.r(G)p.r(G)p.r(U)p.r(U)p.r(T)p.r(T)}$$$RNA1{StrandType:ss}|RNA2{StrandType:as}$	83
RNA1{r(C)p.r(U)p.r(U)p.r(A)p.r(C)p.r(G)p.r(C)p.r(U)p.r(G)p.r(A)p.r(G)p.r(U)p.r(A)p.r(C)p.r(U)p.r(U)p.r(C)p.r(G)p.r(A)p.r(T)p.r(T)}|RNA2{r(U)p.r(C)p.[lna](G)p.r(A)p.r(A)p.r(G)p.r(U)p.r(A)p.r(C)p.r(U)p.r(C)p.r(A)p.r(G)p.r(C)p.r(G)p.r(U)p.r(A)p.r(A)p.r(G)p.r(T)p.r(T)}$$$RNA1{StrandType:ss}|RNA2{StrandType:as}$	82
RNA1{[lna](G)p.r(G)p.r(A)p.r(U)p.r(G)p.r(A)p.r(G)p.r(G)p.r(A)p.r(A)p.r(G)p.r(G)p.r(C)p.r(A)p.r(A)p.r(U)p.r(U)p.r(U)p.r(A)p.[lna](T)p.[lna](T)}|RNA2{r(U)p.r(A)p.r(A)p.r(A)p.r(U)p.r(U)p.r(G)p.r(C)p.r(C)p.r(U)p.r(U)p.r(C)p.r(C)p.r(U)p.r(C)p.r(A)p.r(U)p.r(C)p.r(C)p.[lna](T)p.[lna](T)}$$$RNA1{StrandType:ss}|RNA2{StrandType:as}$	50
RNA1{r(C)p.r(G)p.r(A)p.r(C)p.[fl2r](G)p.r(A)p.r(U)p.r(U)p.r(C)p.r(U)p.r(U)p.r(C)p.[fl2r](U)p.r(A)p.r(C)p.r(U)p.r(C)p.r(A)p.r(A)p.r(T)p.r(T)}|RNA2{r(U)p.[fl2r](U)p.r(G)p.r(A)p.r(G)p.[fl2r](U)p.r(A)p.r(G)p.r(A)p.r(A)p.r(G)p.r(A)p.r(A)p.r(U)p.r(C)p.r(G)p.r(U)p.r(C)p.r(G)p.r(T)p.r(T)}$$$RNA1{StrandType:ss}|RNA2{StrandType:as}$	62
RNA1{r(A)p.r(G)p.r(A)p.r(G)p.r(A)p.r(A)p.r(G)p.r(G)p.r(G)p.r(C)p.r(G)p.r(U)p.r(C)p.r(U)p.r(C)p.r(U)p.[fl2r](A)p.r(C)p.r(A)p.r(T)p.r(T)}|RNA2{r(U)p.r(G)p.[fl2r](U)p.r(A)p.r(G)p.r(A)p.r(G)p.r(A)p.r(C)p.r(G)p.r(C)p.r(C)p.r(C)p.r(U)p.r(U)p.r(C)p.r(U)p.r(C)p.r(U)p.r(T)p.r(T)}$$$RNA1{StrandType:ss}|RNA2{StrandType:as}$	69
RNA1{r(G)p.r(C)p.r(A)p.r(G)p.r(C)p.r(A)p.r(C)p.r(G)p.r(A)p.r(C)p.r(U)p.r(U)p.r(C)p.r(U)p.r(U)p.r(C)p.r(A)p.r(A)p.r(G)p.r(T)p.r(T)}|RNA2{[fl2r](C)p.[fl2r](U)p.[fl2r](U)p.r(G)p.r(A)p.r(A)p.r(G)p.r(A)p.r(A)p.r(G)p.[fl2r](U)p.[fl2r](C)p.r(G)p.[fl2r](U)p.r(G)p.[fl2r](C)p.[fl2r](U)p.r(G)p.[fl2r](C)p.r(T)p.r(T)}$$$RNA1{StrandType:ss}|RNA2{StrandType:as}$	83
RNA1{r(A)p.r(G)p.r(C)p.r(C)p.r(U)p.r(C)p.m(C)p.r(A)p.r(A)p.r(A)p.r(C)p.r(U)p.r(C)p.r(C)p.m(U)p.r(A)p.r(G)p.r(C)p.r(U)p.r(T)p.r(T)}|RNA2{r(A)p.r(G)p.r(C)p.m(U)p.r(A)p.r(G)p.r(G)p.r(A)p.r(G)p.r(U)p.r(U)p.m(U)p.r(G)p.r(G)p.r(A)p.r(G)p.r(G)p.r(C)p.r(U)p.r(T)p.r(T)}$$$RNA1{StrandType:ss}|RNA2{StrandType:as}$	65
RNA1{r(C)p.r(C)p.r(C)p.r(C)p.r(A)p.r(G)p.r(G)p.m(U)p.r(A)p.r(A)p.r(C)p.r(G)p.r(A)p.r(U)p.r(U)p.r(U)p.r(U)p.r(C)p.r(U)p.r(T)p.r(T)}|RNA2{r(A)p.r(G)p.r(A)p.r(A)p.r(A)p.r(A)p.r(U)p.r(C)p.r(G)p.r(U)p.m(U)p.r(A)p.r(C)p.r(C)p.r(U)p.r(G)p.r(G)p.r(G)p.r(G)p.r(T)p.r(T)}$$$RNA1{StrandType:ss}|RNA2{StrandType:as}$	70
